Reference: patent publication US7332495B2 (priority 2002, dated 2008)
Marks after values point to notes of the source that are not given here.

Assays:
Mice [1] = assay: Swelling caused by p-dimethylbenzene in mice; assay type: in vivo; conditions: p.o. 15 or 30 mg/kg
Acute toxicity in rats = conditions: rat, in vivo, po, Bliss method
[2] = test system: S. typhimurium TA97, TA98, TA100 and TA102; assay: Bacterial reverse-mutation assay (Ames); assay type: cell-based; conditions: for Effect on bacterial growth: 5000 μg/plate
From the text: Strains: S. typhimurium TA97, TA98, TA100 and TA102
Results: The assay included two parts without S9 and with S9. […] For all tested doses, there was no significant increase of revertants. Ames test for of IV-12 is negative.

voltage-gating channel = assay: Electrophysiology of hippocampus's pyramidal cell: voltage-gating channel; assay type: cell-based
Kunming mice [3] = assay: Mice writhing model (acetic acid); assay type: in vivo
Outline: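 Mixed-sex mice received test compound at 20 mg/Kg i.p.; controls received saline p.o. (20 ml/Kg). Thirty minutes later 0.7% acetic acid (10 mg/kg i.p.) was injected, and writhes were counted over 5 minutes. Inhibition ratio was calculated relative to control.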

rats [4] = assay: Defervescence in rats given Brewers' yeast; assay type: in vivo; conditions: p.o., 60 mg/kg, Brewers' yeast s.c. 7%
rats [5] = assay: Precipitated withdrawal test in rats; assay type: in vivo; conditions: for Abstinence syndrome (IV ± SD): 14 days, Narcan i.p. 4 mg/kg
Experimental: 48 rats were divided into 4 groups (12 for each group, ? fifty-fifty). Morphines IV-12-1 (75 mg/Kg), IV-12-2 (100 mg/Kg) and saline, was administered respectively using progressive dose increase for 14 days and 3 times per day. On the 15th day, Narcan is injected (i.p. 4 mg/kg) to precipitate withdrawal. The withdrawal syndrome was observed and the rats wre weighed at 30, 60 and 120 minutes after the injection respectively.

Acute toxicity in mice = conditions: mouse, in vivo, po, Bliss method
rat = assay: Rat tail flick model (focused radiant heat); assay type: in vivo; conditions: po, read-out: Analgesia ED50
rats [6] = assay: Spontaneous withdrawal tests (body weight); assay type: in vivo
Experimental: 96 mice were divided into 4 groups (24 for each group, ? fifty-fifty), and Morphine, IV-12-1, IV-12-2, warm boiled water were administered respectively, using progressive dose increase for 7 days (i.g.) and 2 times per day. The weight of the rats after drug withdrawal was compared with the weight one day before drug withdrawal at a corresponding time (See Table 9 and 10).

rats [7] = assay: Conditional position preference in rats
From the text: A commercially available device for testing (Med Associates Inc.) was used. Measurements were automatically recorded by a computer.
The data are indicated by means of […], t-test was employed to compare the data in different groups. The rats were divided randomly into groups by weight, 12 for each group. They were positive control groups. […] The experiments were divided into stages of accommodation, training and test. Accommodation: Open the doors between black box and grey box and the door between white box and grey box. put the rats in from the grey box; let them run free in the training box for 15 minutes for 4 days. Training: The white box is with medicine while the black one is without it. The period training is 10 days, the first day with the medicine while the second day not; the third day with the medicine while the fourth day not, so on and so forth. When carrying out the training with medicine, 15 minutes after the rat is administrated (i.g.) with medicine, it is put into the white box for 30 minutes. When the training is without medicine, 15 minutes after the rat is administrated (i.g.) with saline, it is put into the black box for 30 minutes. Test: On the 11th day, the rat is put into the training box, with the door open. The time the rat stays in each box, and the number of time it enters during 15 minutes were determined, and the percentage of the time staying in the white box to the time together in white box and black box is calculated (Table 12).

Kunming mice [8] = assay: Sedation: spontaneous activities recorded with alternating current tube; assay type: in vivo
Experimental: Kunming mice were used, with a male-female ratio of 50-50%. […] After 30 minutes, acetic acid (0.7%, […] i.p.) was injected and the number of writhes was observed during a 5-minute period after acetic acid administration. The inhibition ratio of the writhing threshold was calculated. The alternating current tube is used to record the spontaneous activities for measuring sedation.

Mice [9] = assay: Jumping test in mice (Narcan precipitated); assay type: in vivo; conditions: for Times for jump (IV ± SD): 3 times per day for 7 days, Narcan i.p. 2 mg/kg
Experimental: Sixty-four mice were divided into 4 groups (16 for each group, ? fifty-fifty) Morphine, IV-12-1 (75 mg/Kg) IV-12-2 (100 mg/Kg) and saline were administrated respectively 3 times per day for 7 days with progressive dose increase. On the 7th day, Narcan is injected (i.p. 2 mg/kg) to precipitate withdrawal. The number of times for the mice to jump was recorded and the incidence of the jump calculated.

NMDA receptor = assay: Electrophysiology of hippocampus's pyramidal cell: NMDA-induced current; assay type: cell-based; conditions: 100 μM NMDA; read-out: IC50 of suppression of current induced by NMDA
[10] = Summary of all three algogenic models; assay type: in vivo; conditions: in words
From the text: All the compounds mentioned above have profound for further value development.

Nc1ccc(CN2CCN(CC(=O)c3ccccc3)CC2)cc1 [IV-12, N^1-(4-aminobenzyl)-N^4-phenacyl piperazine]
Antagonism for swelling caused by p-dimethylbenzene (Mice [1]): no antagonism
LD50 (Acute toxicity in rats): 414 mg/kg
Effect on bacterial growth ([2]; with S9, TA97): inhibitory effect
Effect on bacterial growth ([2]; without S9, TA98): inhibitory effect
Ames test ([2]; without S9 and with S9, TA97, TA98, TA100, TA102): negative
Effect on voltage-gating channel (voltage-gating channel): did not affect
Writhing (K i) (Kunming mice [3]; 20 mg/kg, Table 5 summary): 100
inhibition in vivo at 20 mg/kg (Kunming mice [3]; Mus musculus, ip, i.p. 20 mg/Kg, acetic acid 0.7% i.p. after 30 minutes, writhes in 5 minutes, read-out: Analgesia (inhibition ratio of writhing)): 100%
ED50 (Kunming mice [3]; Mus musculus, po, Mice, Acetic acid Writhing, read-out: Analgesia ED50): 13.2 mg/kg
Defervescence effect (rats [4]): no defervescence effect
Percent of the lost weight (IV ± SD) (rats [5]; IV-12-1 (75 mg/Kg), 30 min after Narcan): −1.8 ± 1.4
Percent of the lost weight (IV ± SD) (rats [5]; IV-12-1 (75 mg/Kg), 60 min after Narcan): −2.6 ± 1.5
Percent of the lost weight (IV ± SD) (rats [5]; IV-12-1 (75 mg/Kg), 120 min after Narcan): −3.1 ± 1.5
Abstinence syndrome (IV ± SD) (rats [5]; IV-12-1 (75 mg/Kg)): 4.7 ± 3.9
Percent of the lost weight (IV ± SD) (rats [5]; IV-12-2 (100 mg/Kg), 30 min after Narcan): −3.1 ± 1.3
Percent of the lost weight (IV ± SD) (rats [5]; IV-12-2 (100 mg/Kg), 60 min after Narcan): −3.9 ± 1.4
Percent of the lost weight (IV ± SD) (rats [5]; IV-12-2 (100 mg/Kg), 120 min after Narcan): −4.2 ± 1.5
Abstinence syndrome (IV ± SD) (rats [5]; IV-12-2 (100 mg/Kg)): 5.3 ± 2.1
LD50 (Acute toxicity in mice): 309 mg/kg
ED50 (rat): 162 mg/kg
Weight after withdrawal compared with weight one day before withdrawal (rats [6]; IV-12-1 75 mg/kg, 138 h after withdrawal): 1.08 ± 0.06
Increase (%) of weight (rats [6]; IV-12-1 (75 mg/kg), 18 h after withdrawal): 3.9%
Increase (%) of weight (rats [6]; IV-12-1 (75 mg/kg), 36 h after withdrawal): 5.3%
Weight (rats [6]; IV-12-1 (75 mg/kg), 60 h after withdrawal): 258.5 ± 38 g
Weight (rats [6]; IV-12-1 (75 mg/kg), 72 h after withdrawal): 251.6 ± 36 g
Weight after withdrawal compared with weight one day before withdrawal (rats [6]; IV-12-2 100 mg/kg, 18 h after withdrawal): 1.01 ± 0.04
Increase (%) of weight (rats [6]; IV-12-2 (75 mg/kg), 60 h after withdrawal): 1.9%
Weight (rats [6]; IV-12-2 (75 mg/kg), 114 h after withdrawal): 260.1 ± 30 g
Increase (%) of weight (rats [6]; IV-12-2 (75 mg/kg), 132 h after withdrawal): 7.0%
Weight after drug withdrawal (in words) (rats [6]; groups IV-12-1 and IV-12-2): did not decrease
Percent in the medicine box (%) (rats [7]; 10 mg/kg i.g.): 46.1 ± 16.3%
Percent in the medicine box (%) (rats [7]; 20 mg/kg i.g.): 51.9 ± 9.8%
Percent in the medicine box (%) (rats [7]; 50 mg/kg i.g.): 62.9 ± 5.4 %
Sedation (writhing model) (Kunming mice [8]; 20 mg/kg, Table 5 summary): 97
inhibition in vivo at 20 mg/kg (Kunming mice [8]; Mus musculus, ip, i.p. 20 mg/Kg, spontaneous activities): 97%
Incidence for jump (%) (Mice [9]; IV-12-1 (75 mg/Kg)): 43.8*^## %
Times for jump (IV ± SD) (Mice [9]; IV-12-1 (75 mg/Kg)): 9 ± 18
Incidence for jump (%) (Mice [9]; IV-12-2 (100 mg/Kg)): 62.5* %
Times for jump (IV ± SD) (Mice [9]; IV-12-2 (100 mg/Kg)): 33 ± 40
IC50 (NMDA receptor): 1110 ± 1000 nM
Analgesic effect on all three algogenic models [10]: powerful analgesic effects
Sedative effect on all three algogenic models [10]: rather significant sedative effect
